Measured values as given in publication PMC7823712, “Synthesis and Antiplasmodial Activity of Novel Bioinspired Imidazolidinedione Derivatives” (Biomolecules, 2020).
Values after ≈ are worked out from the molar mass of the structure shown. Values joined by “and” are separate entries in the source; they are usually repeats but may differ in a detail not shown here. Equal values may be shown once. Read-outs that look alike come from different tables or passages of the source.

Legend:
[1] = system: chloroquine-resistant Dd2 strain; design: method as in PMID 25797165; settings: compared with 3D7; cited from earlier work
[2] = system: Plasmodium falciparum 3D7; design: method as in PMID 25797165; settings: read-out: IC50 against Plasmodium falciparum 3D7; cited from earlier work
W2 strain = system: W2 strain; design: method as in PMID 16190773; settings: cited from earlier work
[3] = system: P. falciparum D10 (CQ-sensitive) strain; assay: P. falciparum drug susceptibility assay (pLDH), D10 strain; format: cell-based, Plasmodium falciparum; settings: for IC50: Plasmodium falciparum, read-out: P. falciparum IC50 D10; for SI D10: SI = IC50 HaCaT/IC50 P. falciparum strain
Method: Plasmodium falciparum cultures were carried out according to Trager and Jensen, with slight modifications. […] Drugs were placed in 96-well flat-bottomed microplates starting from the concentration of 20 µg/mL and 8 serial two-fold dilutions were made. […] Parasite growth was determined spectrophotometrically (OD650) by measuring the activity of the parasite lactate dehydrogenase (pLDH), according to a modified version of the method of Makler in control and drug-treated cultures.

[4] = system: P. falciparum W2 (CQ-resistant) strain; assay: P. falciparum drug susceptibility assay (pLDH), W2 strain; format: cell-based, Plasmodium falciparum; settings: for IC50: Plasmodium falciparum, read-out: P. falciparum IC50 W2; for RI: RI = IC50 CQ resistant P. falciparum strain/IC50 CQ sensitive P. falciparum strain; for SI W2: SI = IC50 HaCaT/IC50 P. falciparum strain
Method: Plasmodium falciparum cultures were carried out according to Trager and Jensen, with slight modifications. The CQ-susceptible strain D10 and the CQ-resistant strain W2 were maintained at 5% hematocrit (human type A-positive red blood cells) in RPMI 1640 (EuroClone, Milan, Italy) medium with the addition of 1% AlbuMax (Invitrogen, Milan, Italy), 0.01% hypoxanthine, 20 mM Hepes, and 2 mM glutamine. All the cultures were maintained at 37 °C in a standard gas mixture consisting of 1% O2, 5% CO2, and 94% N2. Compounds were dissolved in DMSO and then diluted with medium to achieve the required concentrations (final DMSO concentration < 1%, which is non-toxic to the parasite). Drugs were placed in 96-well flat-bottomed microplates starting from the concentration of 20 µg/mL and 8 serial two-fold dilutions were made. Asynchronous cultures with parasitaemia of 1–1.5% and 1% final hematocrit were aliquoted into the plates and incubated for 72 h at 37 °C. Parasite growth was determined spectrophotometrically (OD650) by measuring the activity of the parasite lactate dehydrogenase (pLDH), according to a modified version of the method of Makler in control and drug-treated cultures. The antimalarial activity is expressed as 50% inhibitory concentrations (IC50); […]

HaCaT cells = assay: Cytotoxicity assay (MTT) on HaCaT cells; format: cell-based; settings: Homo sapiens, 48 h
Method: HaCaT cells were cultured in DMEM medium with 10% FBS, GlutaMAX™ and antibiotic-antimycotic. Cells were cultured at 37 °C in a humidified atmosphere containing 5% CO2. To evaluate the cytotoxic activity of tested compounds, the MTT assay was used. Cells (5 × 10^3 cells/well) were plated into a 96-multiwell plate and incubated for 24 h, to grow as monolayers. Subsequently, different doses of compounds dissolved in DMSO were added to each well and mixed. Plates were then incubated for 48 h. The culture media with tested samples were then removed, and cells in each well were treated with 50 μL of complete culture medium with MTT. After 4 h of incubation in a cell culture incubator, MTT solution was replaced with DMSO (50 μL/well) and plates were agitated for 5 min to dissolve the formazan salts. Formazan absorbance was measured at 570 nm, with background measured at 630 nm, using an Asys UVM 340 Microplate Reader (Cambridge, UK). Results were expressed as IC50 values, with respect to the control (not treated cells).

[5] = system: FcM29-Cameroon, a high chloroquine-resistant strain of P. falciparum; design: method as in PMID 21612900; settings: cited from earlier work
Solubility in water = format: physicochemical; settings: statement in words
Hemolysis assay = format: cell-based; settings: human erythrocyte suspension, fresh human erythrocytes
Method: The study protocol was approved by the Bioethics Commission at the Lower Silesian Medical Chamber (1/PNHAB/2018). Hemolytic activity was estimated by the measurement of hemoglobin release from human erythrocyte suspensions after incubation with (5), (6), (7) and (8), as previously described. Compouds dissolved in DMSO were added in a volume corresponding to a final concentration of 20 µg/mL in the sample (DMSO was added in an identical volume). Negative and positive controls were also determined. Hemolysis (H) was calculated according to the following formula:H (%) = [(Asample − Anegative control)/(Apositive control − Anegative control)] × 100(1) where Asample, Anegative control, and Apositive control represent the absorbances of the sample, and negative (erythrocytes in PBS buffer) and positive (erythrocytes in distilled water) controls, respectively.

[6] = D10 (CQ-sensitive), 72 h, pLDH, IC50 expressed in µM
[7] = W2 (CQ-resistant), 72 h, pLDH, IC50 expressed in µM

IC50 [3, 6] [µM] | IC50 ([3]; D10 (CQ-sensitive), 72 h, pLDH) [µg/mL] | IC50 [4, 7] [µM] | IC50 ([4]; W2 (CQ-resistant), 72 h, pLDH) [µg/mL] | SMILES | SI D10 [3] | RI [4] | SI W2 [4] | IC50 (HaCaT cells) [µg/mL] | IC50 (HaCaT cells; IC50 expressed in µM) [µM] | other results
 |  |  |  | CCN1C(=O)N(CCC(C)C)C2(CCN(Cc3cc(Cl)ccc3O)CC2)C1=O [CWHM-123, 8-(5-chloro-2-hydroxybenzyl)-3-ethyl-1-isopentyl-1,3,8-triazaspiro[4.5]decane-2,4-dione] |  |  |  |  |  | potency on the chloroquine-resistant Dd2 strain [1]: equivalent potency; IC50 [2]: 0.31 µM
 |  |  |  | CC(C)C1C(=O)C(=O)N/C1=N/C(=N)Nc1ccc(Cl)c(Cl)c1 (stereo not shown) [WR182393] |  |  |  |  |  | IC50 for W2 (W2 strain): 2.66469 µg/mL
17.5 ± 1.55 | 8.27 ± 0.737 | 10.1 ± 0.2 | 4.78 ± 0.0974 | O=C1NC2(CCc3ccccc32)C(=O)N1CCCCCN1CCN(c2nc3ccccc3[nH]2)CC1 (racemic) [(6), (R,S)-1-(5-(4-(1H-Benzo[d]imidazol-2-yl)piperazin-1-yl)pentyl)-2′,3′-dihydrospiro[imidazolidine-4,1′-indene]-2,5-dione] | 3.31 | 0.58 | 5.73 | 27.4 | 58 ± 1.48 | 
 |  |  |  | CCN(CC)CCCC(C)Nc1ccnc2cc(Cl)ccc12 (stereo not shown) [CQ, Chloroquine, reference compound] |  |  |  |  |  | IC50 ([3]; D10, 72 h): 0.00764 µg/mL and 10 nM; IC50 ([4]; W2, 72 h): 0.103 µg/mL and 200 nM
 |  |  |  | CCN1C(=O)N(CCC(C)C)C2(CCN(Cc3cc(Cl)c(Cl)cc3O)CC2)C1=O [CWHM-505] |  |  |  |  |  | IC50 [2]: 0.099 µM
 |  |  |  | CN1C(=N)N(C)/C(=C/c2c[nH]c3ccccc23)C1=O [Aplysinopsin] |  |  |  |  |  | IC50 against FcM29-Cameroon [5]: 0.43 µg/mL (≈ 1.69 µM); IC50 ([5]; read-out: IC50 against FcM29-Cameroon): 1.69 µM
 | > 10 | 12 ± 4.12 | 5.65 ± 1.95 | O=C1NC2(CCc3ccccc32)C(=O)N1CCCCCN1CCN(C2Cc3ccccc3C2)CC1 (racemic) [(8), (R,S)-1-(5-(4-(2,3-Dihydro-1H-inden-2-yl)piperazin-1-yl)pentyl)-2′,3′-dihydrospiro[imidazolidine-4,1′-indene]-2,5-dione] |  |  | 4.02 | 22.7 | 48.1 ± 2.49 | 
12.75 ± 0.02 | 6.2 ± 0.892 | 4.98 ± 0.52 | 2.42 ± 0.255 | O=C1NC2(CCCc3ccccc32)C(=O)N1CCCCCN1CCN(c2nc3ccccc3[nH]2)CC1 (racemic) [Compound (5), (R,S)-1-(5-(4-(1H-Benzo[d]imidazol-2-yl)piperazin-1-yl)pentyl)-3′,4′-dihydro-2′H-spiro[imidazolidine-4,1′-naphthalene]-2,5-dione] | 3.26 | 0.39 | 8.34 | 20.2 | 41.6 ± 2.43 | solubility in water (Solubility in water): low solubility in water; hemolysis at 30 min, 20 µg/mL (Hemolysis assay): 5.6%
19.9 ± 0.29 | 9.66 ± 0.141 | 8.93 ± 1.35 | 4.35 ± 0.659 | O=C1NC2(CCCc3ccccc32)C(=O)N1CCCCCN1CCN(C2Cc3ccccc3C2)CC1 (racemic) [(7), (R,S)-1-(5-(4-(2,3-Dihydro-1H-inden-2-yl)piperazin-1-yl)pentyl)-3′,4′-dihydro-2′H-spiro[imidazolidine-4,1′-naphthalene]-2,5-dione] | 3.16 | 0.45 | 7.02 | 30.5 | 62.8 ± 2.12 | 
